Legend:
[1] = system: Liver; experiment: Biodistribution in Wistar rat liver at 20 MBq, iv after 60 mins; type: ADME, organism-based; details: in vivo, 1 h
[2] = system: Rattus norvegicus; experiment: Biodistribution in corticosterone pretreated Wistar rat fat at 20 MBq, iv after 5 mins; type: ADME, organism-based, Adipose tissue; details: in vivo
[3] = system: Thymus; experiment: Biodistribution in corticosterone pretreated Wistar rat thymus at 20 MBq, iv after 60 mins; type: ADME, organism-based; details: in vivo, 1 h
[4] = system: Thymus; experiment: Biodistribution in Wistar rat thymus at 20 MBq, iv after 5 mins; type: ADME, organism-based; details: in vivo
[5] = system: Heart; experiment: Biodistribution in corticosterone pretreated Wistar rat heart at 20 MBq, iv after 5 mins; type: ADME, organism-based; details: in vivo
[6] = system: Cortex; experiment: Biodistribution in Wistar rat cortex at 20 MBq, iv after 60 mins; type: ADME, organism-based; details: in vivo, 1 h
[7] = system: Rattus norvegicus; experiment: Biodistribution in Wistar rat rest of brain at 20 MBq, iv after 60 mins; type: ADME, organism-based; details: in vivo, 1 h
[8] = system: Rattus norvegicus; experiment: Biodistribution in corticosterone pretreated Wistar rat rest of brain at 20 MBq, iv after 60 mins; type: ADME, organism-based; details: in vivo, 1 h
[9] = system: Liver; experiment: Biodistribution in corticosterone pretreated Wistar rat liver at 20 MBq, iv after 60 mins; type: ADME, organism-based; details: in vivo, 1 h
[10] = system: Rattus norvegicus; experiment: Biodistribution in corticosterone pretreated Wistar rat brown fat at 20 MBq, iv after 60 mins; type: ADME, organism-based, Brown adipose tissue; details: in vivo, 1 h
[11] = system: Lung; experiment: Biodistribution in corticosterone pretreated Wistar rat lung at 20 MBq, iv after 60 mins; type: ADME, organism-based; details: in vivo, 1 h
[12] = system: Muscle tissue; experiment: Biodistribution in Wistar rat muscle at 20 MBq, iv after 5 mins; type: ADME, organism-based; details: in vivo
[13] = system: Rattus norvegicus; experiment: Biodistribution in Wistar rat fat at 20 MBq, iv after 60 mins; type: ADME, organism-based, Adipose tissue; details: in vivo, 1 h
[14] = system: Spleen; experiment: Biodistribution in corticosterone pretreated Wistar rat spleen at 20 MBq, iv after 5 mins; type: ADME, organism-based; details: in vivo
[15] = system: Rattus norvegicus; experiment: Biodistribution in Wistar rat testis at 20 MBq, iv after 5 mins; type: ADME, organism-based; details: in vivo
[16] = system: Pituitary gland; experiment: Biodistribution in corticosterone pretreated Wistar rat pituitary at 20 MBq, iv after 5 mins; type: ADME, organism-based; details: in vivo
[17] = system: Femur; experiment: Biodistribution in Wistar rat femur at 20 MBq, iv after 60 mins; type: ADME, organism-based; details: in vivo, 1 h
[18] = system: Rattus norvegicus; experiment: Biodistribution in corticosterone pretreated Wistar rat brown fat at 20 MBq, iv after 5 mins; type: ADME, organism-based, Brown adipose tissue; details: in vivo
[19] = system: Muscle tissue; experiment: Biodistribution in corticosterone pretreated Wistar rat muscle at 20 MBq, iv after 5 mins; type: ADME, organism-based; details: in vivo
[20] = system: Hippocampus; experiment: Biodistribution in corticosterone pretreated Wistar rat hippocampus at 20 MBq, iv after 5 mins; type: ADME, organism-based; details: in vivo
[21] = system: Heart; experiment: Biodistribution in Wistar rat heart at 20 MBq, iv after 60 mins; type: ADME, organism-based; details: in vivo, 1 h
[22] = system: Pituitary gland; experiment: Biodistribution in Wistar rat pituitary at 20 MBq, iv after 5 mins; type: ADME, organism-based; details: in vivo
[23] = system: Lung; experiment: Biodistribution in corticosterone pretreated Wistar rat lung at 20 MBq, iv after 5 mins; type: ADME, organism-based; details: in vivo
[24] = system: Pancreas; experiment: Biodistribution in corticosterone pretreated Wistar rat pancreas at 20 MBq, iv after 5 mins; type: ADME, organism-based; details: in vivo
[25] = system: Adrenal; experiment: Biodistribution in corticosterone pretreated Wistar rat adrenal at 20 MBq, iv after 5 mins; type: ADME, organism-based, Adrenal tissue; details: in vivo
[26] = system: Rattus norvegicus; experiment: Biodistribution in Wistar rat brown fat at 20 MBq, iv after 5 mins; type: ADME, organism-based, Brown adipose tissue; details: in vivo
[27] = system: Rattus norvegicus; experiment: Biodistribution in corticosterone pretreated Wistar rat fat at 20 MBq, iv after 60 mins; type: ADME, organism-based, Adipose tissue; details: in vivo, 1 h
[28] = system: Rattus norvegicus; experiment: Biodistribution in Wistar rat testis at 20 MBq, iv after 60 mins; type: ADME, organism-based; details: in vivo, 1 h
[29] = system: Blood; experiment: Biodistribution in corticosterone pretreated Wistar rat blood at 20 MBq, iv after 60 mins; type: ADME, organism-based; details: in vivo, 1 h
[30] = system: Rattus norvegicus; experiment: Biodistribution in Wistar rat rest of brain at 20 MBq, iv after 5 mins; type: ADME, organism-based; details: in vivo
[31] = system: Rattus norvegicus; experiment: Biodistribution in corticosterone pretreated Wistar rat testis at 20 MBq, iv after 5 mins; type: ADME, organism-based; details: in vivo
[32] = system: Heart; experiment: Biodistribution in corticosterone pretreated Wistar rat heart at 20 MBq, iv after 60 mins; type: ADME, organism-based; details: in vivo, 1 h
[33] = system: Harderian gland; experiment: Biodistribution in corticosterone pretreated Wistar rat harderian gland at 20 MBq, iv after 5 mins; type: ADME, organism-based; details: in vivo
[34] = system: Spleen; experiment: Biodistribution in Wistar rat spleen at 20 MBq, iv after 60 mins; type: ADME, organism-based; details: in vivo, 1 h
[35] = system: Adrenal; experiment: Biodistribution in Wistar rat adrenal at 20 MBq, iv after 60 mins; type: ADME, organism-based, Adrenal tissue; details: in vivo, 1 h
[36] = system: Harderian gland; experiment: Biodistribution in Wistar rat harderian gland at 20 MBq, iv after 5 mins; type: ADME, organism-based; details: in vivo
[37] = system: Kidney; experiment: Biodistribution in corticosterone pretreated Wistar rat kidney at 20 MBq, iv after 5 mins; type: ADME, organism-based; details: in vivo
[38] = system: Muscle tissue; experiment: Biodistribution in Wistar rat muscle at 20 MBq, iv after 60 mins; type: ADME, organism-based; details: in vivo, 1 h
[39] = system: Harderian gland; experiment: Biodistribution in corticosterone pretreated Wistar rat harderian gland at 20 MBq, iv after 60 mins; type: ADME, organism-based; details: in vivo, 1 h
[40] = system: Pituitary gland; experiment: Biodistribution in Wistar rat pituitary at 20 MBq, iv after 60 mins; type: ADME, organism-based; details: in vivo, 1 h

Drug uptake [1]: 2.54 % ID/g
Drug uptake [2]: 1.51 % ID/g
Drug uptake [3]: 1.6 % ID/g
Drug uptake [4]: 1.57 % ID/g
Drug uptake [5]: 1.91 % ID/g
Drug uptake [6]: 0.6 % ID/g
Drug uptake [7]: 0.56 % ID/g
Drug uptake [8]: 0.61 % ID/g
Drug uptake [9]: 3.84 % ID/g
Drug uptake [10]: 7.44 % ID/g
Drug uptake [11]: 1.03 % ID/g
Drug uptake [12]: 0.94 % ID/g
Drug uptake [13]: 3.11 % ID/g
Drug uptake [14]: 1.21 % ID/g
Drug uptake [15]: 0.47 % ID/g
Drug uptake [16]: 2.45 % ID/g
Drug uptake [17]: 0.88 % ID/g
Drug uptake [18]: 5 % ID/g
Drug uptake [19]: 0.9 % ID/g
Drug uptake [20]: 1.35 % ID/g
Drug uptake [21]: 0.75 % ID/g
Drug uptake [22]: 2.49 % ID/g
Drug uptake [23]: 1.44 % ID/g
Drug uptake [24]: 2.81 % ID/g
Drug uptake [25]: 8.68 % ID/g
Drug uptake [26]: 5.22 % ID/g
Drug uptake [27]: 2.43 % ID/g
Drug uptake [28]: 0.52 % ID/g
Drug uptake [29]: 0.74 % ID/g
Drug uptake [30]: 1.52 % ID/g
Drug uptake [31]: 0.43 % ID/g
Drug uptake [32]: 0.67 % ID/g
Drug uptake [33]: 1.65 % ID/g
Drug uptake [34]: 1.06 % ID/g
Drug uptake [35]: 4.4 % ID/g
Drug uptake [36]: 1.68 % ID/g
Drug uptake [37]: 2.06 % ID/g
Drug uptake [38]: 0.59 % ID/g
Drug uptake [39]: 2.87 % ID/g
Drug uptake [40]: 1.77 % ID/g
SMILES: C=CCC1Oc2cccc(O[11CH3])c2-c2ccc3c(c21)C(C)=CC(C)(C)N3 (stereo not given)
